Reference: patent US20100063085A1, “METHOD OF TREATING LEARNING IMPAIRMENT IN DOWN'S SYNDROME SUBJECTS” (University Court of The University of Dundee, priority 2008, published 2010)
Read-outs that look alike come from different tables or passages of the source.

Key:
Type in all cases: biochemical
ROCK-II = ROCK-II (Homo sapiens, UniProt O75116); test: ROCK-II 33P kinase assay; conditions: read-out: ROCK-II activity as percentage of control without inhibitor
Procedure: (§1) All assays (25.5 μl) were carried out at room temperature (21° C.) and were linear with respect to time and enzyme concentrations under the conditions used. Assays were performed for 30 minutes except assays for LCK and PKB which were performed for 15 minutes using Multidrop Micro reagent dispensers (Thermo Electron Corporation, Waltham, Mass. 02454, USA) in a 96-well format. The concentration of […] [γ-^33P] ATP (800 cpm/pmol) in the assays was one of three concentrations (5, 20 or 50 μM) in order to be at or below Km for ATP for the enzyme. Assays were initiated with MgATP and stopped by addition of 5 μl of 0.5M orthophosphoric acid. Assays were then harvested onto P81 filterplates using a unifilter harvester (PerkinElmer, Boston, Mass. 02118, USA), with a wash buffer of 50 mM orthophosphoric acid. Filterplates were then air dried overnight. 10 μl of Microscint O was added per well prior to counting for radioactivity.
(§2) MKK1, JNK/SAPK1c, SAPK2a/p38, SAPK2b/p38β2, SAPK3/p38γ, SAPK4/p38δ, MAPK2/ERK2, MAPKAP-K1β, MAPKAP-K2, MSK1, PRAK, PKA, PKCα, PDK1, SGK, p70S6K, GSK3β, ROCK-II, PRK2, AMPK, CHK1, CHK2, CK2, PHK, LCK, were assayed according to Davies et al., (Davies, S. P., Reddy, H., Caivano, M. and Cohen, P. Biochem. J. 351, 95-105, 2000.
(§3) CSK and CDK2/cyclinA, were assayed according to Bain et al. (Bain J, McLauchlan H, Elliott M, Cohen P. Biochem J. 371, 199-204, 2003., except that ATP concentrations were either 5, 20 or 50 micromolar so that they were at or below the Km for ATP. The ATP concentrations used were as follows, 5 μM for assays of MKK1, SAPK3, SAPK4, GSK3β, PRK2 CK2 20 μm for assays of JNK, SAPK2β, MAPKAP-K2, MSK1, PRAK, PKA, […], PDK1, SGK, p70S6K, ROCK-II, CHK1, CHK2, CSK, CDK2, and 50 μM for assays of SAPK2a, MAPK2/ERK2, AMPK, LCK, PHK and MAPKAP-K1β.

MSK1 = MSK1 (Homo sapiens, UniProt O75582); test: MSK1 33P kinase assay; conditions: read-out: MSK1 activity as percentage of control without inhibitor
MSK1, sequence (O75582 whole entry, species assumed): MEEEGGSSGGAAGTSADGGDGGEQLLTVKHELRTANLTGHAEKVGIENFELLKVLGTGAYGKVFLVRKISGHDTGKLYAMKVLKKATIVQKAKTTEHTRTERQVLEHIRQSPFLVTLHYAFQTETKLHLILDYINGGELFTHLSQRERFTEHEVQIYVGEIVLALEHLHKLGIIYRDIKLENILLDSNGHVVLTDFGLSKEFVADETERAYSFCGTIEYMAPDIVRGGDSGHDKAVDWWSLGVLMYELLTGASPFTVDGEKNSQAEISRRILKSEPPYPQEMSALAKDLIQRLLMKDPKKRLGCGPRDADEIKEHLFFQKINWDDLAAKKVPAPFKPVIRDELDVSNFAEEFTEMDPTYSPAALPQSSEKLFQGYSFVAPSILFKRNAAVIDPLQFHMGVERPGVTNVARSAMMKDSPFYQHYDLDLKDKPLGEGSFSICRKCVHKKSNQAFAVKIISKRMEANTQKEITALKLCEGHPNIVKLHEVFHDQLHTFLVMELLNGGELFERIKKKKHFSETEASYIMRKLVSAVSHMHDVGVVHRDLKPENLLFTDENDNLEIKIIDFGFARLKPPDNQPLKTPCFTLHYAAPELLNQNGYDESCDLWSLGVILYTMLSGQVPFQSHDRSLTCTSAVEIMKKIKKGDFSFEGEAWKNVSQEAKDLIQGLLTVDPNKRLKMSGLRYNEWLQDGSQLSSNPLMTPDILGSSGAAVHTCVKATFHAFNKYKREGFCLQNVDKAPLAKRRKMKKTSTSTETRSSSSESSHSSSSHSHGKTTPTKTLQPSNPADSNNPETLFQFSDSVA
Procedure: as §1, §2, §3

CDK2/cyclin A = CDK2/cyclin A (Homo sapiens, UniProt P24941); test: CDK2/cyclin A 33P kinase assay; conditions: read-out: CDK2/cyclin A activity as percentage of control without inhibitor
Procedure: as §1, §3

CSK = CSK (Homo sapiens, UniProt P41240); test: CSK 33P kinase assay; conditions: read-out: CSK activity as percentage of control without inhibitor
CSK, sequence (P41240 whole entry, species assumed): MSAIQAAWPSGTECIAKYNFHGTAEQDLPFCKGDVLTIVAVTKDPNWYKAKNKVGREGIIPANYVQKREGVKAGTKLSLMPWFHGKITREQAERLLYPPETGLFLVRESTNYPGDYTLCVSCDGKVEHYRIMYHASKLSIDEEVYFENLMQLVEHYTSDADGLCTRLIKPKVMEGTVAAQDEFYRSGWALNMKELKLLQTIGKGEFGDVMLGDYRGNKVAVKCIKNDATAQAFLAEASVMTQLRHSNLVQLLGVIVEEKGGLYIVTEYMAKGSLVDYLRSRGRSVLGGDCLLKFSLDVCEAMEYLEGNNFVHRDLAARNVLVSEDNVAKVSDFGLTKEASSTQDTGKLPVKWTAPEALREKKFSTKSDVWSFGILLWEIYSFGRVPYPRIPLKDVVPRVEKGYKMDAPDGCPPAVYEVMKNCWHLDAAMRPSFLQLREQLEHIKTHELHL
Procedure: as §1, §3

NEK2a = target: T1, NEK2a (Homo sapiens, UniProt P51955); test: NEK2a 33P kinase assay; conditions: read-out: NEK2a activity as percentage of control without inhibitor
T1 sequence (P51955 1-445): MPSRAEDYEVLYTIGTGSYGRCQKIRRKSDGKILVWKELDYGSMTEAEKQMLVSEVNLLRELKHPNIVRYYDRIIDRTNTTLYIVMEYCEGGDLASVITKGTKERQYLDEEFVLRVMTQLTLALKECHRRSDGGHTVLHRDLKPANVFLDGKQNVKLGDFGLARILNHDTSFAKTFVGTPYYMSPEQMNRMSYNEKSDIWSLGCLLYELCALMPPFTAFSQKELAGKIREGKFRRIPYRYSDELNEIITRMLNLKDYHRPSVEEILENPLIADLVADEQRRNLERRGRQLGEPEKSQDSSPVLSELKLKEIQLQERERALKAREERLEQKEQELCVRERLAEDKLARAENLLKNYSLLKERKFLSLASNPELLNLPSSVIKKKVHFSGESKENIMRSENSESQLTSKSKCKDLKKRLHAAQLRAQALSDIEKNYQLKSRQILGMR
Procedure: as §1
5-20 mU of NEK2a (diluted in 50 mM Tris (pH 7.5), 0.1 mM EGTA, 1 mg/ml BSA, 0.1%, β-Mercaptoethanol) is assayed against NEK2a peptide ([…]) in a final volume of 25.5 μl containing 50 mM Tris (pH 7.5), 0.1 mM EGTA, 0.01% Brij, 0.1%, β-Mercaptoethanol, 300 μM NEK2a peptide, 10 mM magnesium acetate and 0.05 mM [^33P- γATP](500-1000 cpm/pmole) and incubated for 30 mins at room temperature.

ROCK-II, sequence (O75116 whole entry, species assumed): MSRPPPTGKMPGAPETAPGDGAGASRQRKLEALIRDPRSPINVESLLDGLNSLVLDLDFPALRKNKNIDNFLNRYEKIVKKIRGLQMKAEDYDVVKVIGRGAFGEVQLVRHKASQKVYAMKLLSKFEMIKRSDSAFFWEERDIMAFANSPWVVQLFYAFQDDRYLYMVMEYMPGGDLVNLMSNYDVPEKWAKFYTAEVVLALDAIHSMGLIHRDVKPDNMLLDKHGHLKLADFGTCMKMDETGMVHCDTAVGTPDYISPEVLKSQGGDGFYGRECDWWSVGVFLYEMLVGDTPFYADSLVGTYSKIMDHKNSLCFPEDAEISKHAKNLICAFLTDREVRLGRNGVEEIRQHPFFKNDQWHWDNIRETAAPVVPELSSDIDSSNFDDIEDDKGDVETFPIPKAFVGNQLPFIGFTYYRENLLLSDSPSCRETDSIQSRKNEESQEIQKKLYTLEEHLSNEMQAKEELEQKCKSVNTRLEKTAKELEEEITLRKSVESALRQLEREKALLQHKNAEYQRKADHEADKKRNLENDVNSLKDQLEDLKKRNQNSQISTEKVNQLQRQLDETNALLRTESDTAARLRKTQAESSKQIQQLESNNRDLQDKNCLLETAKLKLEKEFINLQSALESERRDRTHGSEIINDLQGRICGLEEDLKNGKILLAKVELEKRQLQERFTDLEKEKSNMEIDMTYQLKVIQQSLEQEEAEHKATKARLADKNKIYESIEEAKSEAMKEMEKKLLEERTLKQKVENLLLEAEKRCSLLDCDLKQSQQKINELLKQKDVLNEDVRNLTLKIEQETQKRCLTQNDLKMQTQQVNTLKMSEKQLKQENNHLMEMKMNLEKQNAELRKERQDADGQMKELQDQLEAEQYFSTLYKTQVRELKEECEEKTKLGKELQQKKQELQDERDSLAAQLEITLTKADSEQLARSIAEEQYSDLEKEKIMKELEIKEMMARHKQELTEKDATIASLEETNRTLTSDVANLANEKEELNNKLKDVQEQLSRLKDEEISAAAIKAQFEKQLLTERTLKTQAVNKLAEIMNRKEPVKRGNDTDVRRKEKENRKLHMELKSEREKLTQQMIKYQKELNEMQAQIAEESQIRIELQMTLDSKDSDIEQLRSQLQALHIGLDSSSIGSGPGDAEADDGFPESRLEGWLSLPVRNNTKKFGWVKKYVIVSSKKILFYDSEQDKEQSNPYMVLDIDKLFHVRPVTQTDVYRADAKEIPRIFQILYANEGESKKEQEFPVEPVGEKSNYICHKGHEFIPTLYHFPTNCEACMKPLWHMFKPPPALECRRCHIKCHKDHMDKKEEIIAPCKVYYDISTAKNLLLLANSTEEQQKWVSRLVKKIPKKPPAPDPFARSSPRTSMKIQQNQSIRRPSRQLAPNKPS

`COc1ccc2c3c([nH]c2c1)C(C)=NCC3` [Harmaline] gave a remaining activity at 1 µM (ROCK-II; inhibitor 1 μM) of 99%, a remaining activity at 10 µM (ROCK-II; inhibitor 10 μM) of 81% and a remaining activity at 1 µM (MSK1; inhibitor 1 μM) of 98%. The remaining activity at 10 µM (MSK1; inhibitor 10 μM) was 111%, the remaining activity at 1 µM (CDK2/cyclin A) was 99% and the remaining activity at 10 µM (CDK2/cyclin A) was 98%. It also gave a remaining activity at 1 µM (CSK) of 64%, a remaining activity at 10 µM (CSK) of 90% and a remaining activity at 1 µM (NEK2a; inhibitor 1 μM) of 69%. It also gave a remaining activity at 10 µM (NEK2a; inhibitor 10 μM) of 109%.
For `COc1ccc2c(c1)[nH]c1c(C)nccc12` [Harmine], the remaining activity at 1 µM (ROCK-II) was 84%, the remaining activity at 10 µM (ROCK-II) was 61% and the remaining activity at 1 µM (MSK1) was 90%. The remaining activity at 10 µM (MSK1) was 88%, the remaining activity at 1 µM (CDK2/cyclin A) was 98% and the remaining activity at 10 µM (CDK2/cyclin A) was 62%. It also gave a remaining activity at 1 µM (CSK) of 92%, a remaining activity at 10 µM (CSK) of 101% and a remaining activity at 1 µM (NEK2a) of 106%. It also gave a remaining activity at 10 µM (NEK2a) of 111%.
`CC1=NCCc2c1[nH]c1cc(O)ccc21` [Harmalol] showed a remaining activity at 1 µM (ROCK-II; inhibitor 1 μM) of 96%, a remaining activity at 10 µM (ROCK-II; inhibitor 10 μM) of 81% and a remaining activity at 1 µM (MSK1; inhibitor 1 μM) of 84%. For the same molecule, the remaining activity at 10 µM (MSK1; inhibitor 10 μM) was 59%, the remaining activity at 1 µM (CDK2/cyclin A; inhibitor 1 μM) was 97% and the remaining activity at 10 µM (CDK2/cyclin A; inhibitor 10 μM) was 77%. It also gave a remaining activity at 1 µM (CSK; inhibitor 1 μM) of 110%, a remaining activity at 10 µM (CSK; inhibitor 10 μM) of 92% and a remaining activity at 1 µM (NEK2a; inhibitor 1 μM) of 104%. The remaining activity at 10 µM (NEK2a; inhibitor 10 μM) was 83%.
